Test results from patent publication US7678781B2, “11-phosphorous steroid derivatives useful as progesterone receptor modulators” (Janssen Pharmaceutica N.V., priority 2006, dated 2010).

Assays:
[1] = tested on: T47D human breast cancer cells; experiment: Alkaline phosphatase assay in human breast cancer cell line T47D; type: cell-based; conditions: 24 h, read-out: T47D IC50 (nM)
Experimental: Alkaline Phosphatase Assay in Human Breast Cancer Cell Line T47D
T47D human breast cancer cells were grown in RPMI medium without phenol red (Invitrogen) containing 10% (v/v) heat-inactivated fetal bovine serum (FBS; Hyclone), 1% (v/v) penicillin-streptomycin (Invitrogen), 1% (w/v) glutamine (Invitrogen), and […] insulin (Sigma). Incubation conditions were 37° C. in a humidified 5% (v/v) carbon dioxide environment.
The cells were plated in 96-well tissue culture plates at 10,000 cells per well in assay medium [RPMI medium without phenol red (Invitrogen) containing 5% (v/v) charcoal-treated FBS (Hyclone) and 1% (v/v) penicillin-streptomycin (Invitrogen)]. Two days later, the medium was decanted and test compound or control were added at a final concentration of 0.1% (v/v) dimethyl sulfoxide in fresh assay medium. Twenty-four hours later, an alkaline phosphatase assay was performed using a SEAP kit (BD Biosciences Clontech, Palo Alto, Calif.). Briefly, the medium was decanted and the cells were fixed for 30 minutes at room temperature with 5% (v/v) formalin (Sigma). The cells were washed once with room temperature Hank's buffered saline solution (Invitrogen). Equal volumes (0.05 mL) of 1× Dilution Buffer, Assay Buffer and 1:20 substrate/enhancer mixture were then added. After 1 hour incubation at room temperature in the dark, the lysate was transferred to a white 96-well plate (Dynex) and luminescence was read using a LuminoSkan Ascent (Thermo Electron, Woburn, Mass.).

[2] = tested on: A549 Human lung carcinoma cells; experiment: Transient transfection and Steady Glo luciferase assay in A549 cells with dexamethasone challenge; type: cell-based; conditions: transfected A549 cells, challenged with dexamethasone (glucocorticoid agonist), 24 h
Experimental: Transient Transfection and Steady Glo Luciferase Assay
A549 Human lung carcinoma cells were grown in F-12K Nutrient Mixture containing 10% (v/v) fetal bovine serum (FBS; Invitrogen), 2 mM glutamine and 0.15% sodium dicarbonate(Invitrogen).
A549 cells were split 1 to 3 in 175 cm tissue culture flask. The cells were incubated at 37° C. in CO2 incubator until the cells were 95% confluent (typically 24-30 hours).
The following solutions were prepared in sterile tubes: (a) Solution A: 1.5 μg/ml of DNA in 8.5 ml OPTI-MEM I Reduced Serum Medium. (GIBCO cat# 31985) and (b) Solution B: 6 μl/ml of DMRIE-C Reagent into […] OPTI-MEM I. The two solutions were combined and mixed gently, then incubated at room temperature for 40 minutes.
The A549 cells prepared above were washed with […] of OPTI-MEM I. The medium was removed and 17 ml of the lipid-DNA complex solution was overlayed onto cells. The cells ere then incubated for 16 h at 37° C. in CO2 incubator. The DNA-containing medium was removed and 30 ml of growth medium was added. (5% Charcoal treated FBS) After 5-6 h, the cells were seeded in a 96 well plate and the cells incubated overnight at 37° C. in CO2 incubator.
To each well was then added 5 μl of test compounds and the cells incubated at 37° C. for 10 min. […] A 150 μL sample from each well was then transferred into a DYNEX Microlitel plate and read on Top-counter.

C[C@]12C[C@H](c3ccc(P(=O)(Oc4ccccc4)Oc4ccccc4)cc3)C3=C4CCC(=O)C=C4CC[C@H]3[C@@H]1CCC2=O [Compound 33]
IC50 [1]: > 1000 nM
IC50 [2]: 217 nM

C=C1CCO[C@]12CC[C@H]1[C@@H]3CCC4=CC(=O)CCC4=C3[C@@H](c3ccc(P(C)(C)=O)cc3)C[C@@]12C [Compound 4]
IC50 [1]: 3 nM

C=C1CCO[C@]12CC[C@H]1[C@@H]3CCC4=CC(=O)CCC4=C3[C@@H](c3ccc(P(=O)(Oc4ccccc4)Oc4ccccc4)cc3)C[C@@]12C [Compound 37]
IC50 [1]: 3.3 nM
IC50 [2]: 34.3 nM
